Converted amounts (≈) assume the structure as drawn. The source made the active and inactive calls. The rule behind the calls is not given here.
What was measured:
[1] = Solubility of compound in 1:99 DMSO/PBS incubated for 4 hrs; assay type: physicochemical
[2] = target: Adenosine receptor A2a (Homo sapiens) (UniProt P29274); assay: Displacement of [3H]DPCPX from human A2AAR expressed in human HeLa cell membrane at 1 uM incubated for 30 mins by competitive binding assay relative to control; assay type: cell membranes
Cytochrome P450 3A4 [3] = target: T1, Cytochrome P450 3A4 (Homo sapiens, UniProt P08684); assay: Inhibition of CYP3A4 (unknown origin) using 7-BFC as substrate preincubated for 5 mins followed by substrate addition by fluorescence based assay; assay type: ADME
[4] = target: T2, Adenosine receptor A2b (Homo sapiens) (UniProt P29275); assay: Antagonist activity against N-terminal pRK5/SNAP-tagged human A2BAR transfected in HEK293T cells assessed as reduction in NECA-induced change in cellular impedence by measuring AUC measured for 45 mins; assay type: functional, cell-based; settings: filed as antagonist
T2 sequence (whole entry): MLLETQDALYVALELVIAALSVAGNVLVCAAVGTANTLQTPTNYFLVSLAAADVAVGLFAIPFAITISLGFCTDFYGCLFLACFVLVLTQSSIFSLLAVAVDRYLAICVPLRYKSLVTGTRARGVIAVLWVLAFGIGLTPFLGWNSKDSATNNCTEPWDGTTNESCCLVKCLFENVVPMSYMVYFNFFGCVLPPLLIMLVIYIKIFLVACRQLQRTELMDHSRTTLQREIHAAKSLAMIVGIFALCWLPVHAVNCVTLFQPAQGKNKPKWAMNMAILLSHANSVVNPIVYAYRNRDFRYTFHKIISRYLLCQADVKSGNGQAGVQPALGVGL

[5] = Immunostimulatory effect on anti-CD3/CD28 antibodies/IL-2-activated human PBMC cells assessed as reversal of ADO-mediated inhibition of cell proliferation at 15 uM incubated for 3 days by CFSE dye based flow cytometry (reference value: 3.55 %); assay type: functional; set-up: scale not given: the % may be the effect or the level left; settings: time 3 day
Cytochrome P450 3A4 [6] = target: T1, Cytochrome P450 3A4
Description: Inhibition of CYP3A4 (unknown origin) using DBF as substrate preincubated for 5 mins followed by substrate addition by fluorescence based assay

[7] = target: T3, Adenosine receptor A3 (Homo sapiens) (UniProt P0DMS8); assay: Displacement of [3H]NECA from human A3AR expressed in human HeLa cell membrane at 1 uM incubated for 180 mins by competitive binding assay relative to control; assay type: cell membranes
T3 sequence (whole entry): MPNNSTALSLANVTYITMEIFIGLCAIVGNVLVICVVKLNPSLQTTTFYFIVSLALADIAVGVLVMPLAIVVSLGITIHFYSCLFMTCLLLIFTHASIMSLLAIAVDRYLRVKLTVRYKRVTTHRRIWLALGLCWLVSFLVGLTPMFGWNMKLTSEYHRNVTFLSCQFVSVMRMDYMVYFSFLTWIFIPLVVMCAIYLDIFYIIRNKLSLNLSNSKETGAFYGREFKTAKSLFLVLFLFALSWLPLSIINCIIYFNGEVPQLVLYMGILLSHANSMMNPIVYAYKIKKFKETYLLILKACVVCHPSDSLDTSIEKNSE

[8] = target: T4, Adenosine receptor A1 (Homo sapiens) (UniProt P30542); assay: Displacement of [3H]DPCPX from human A1AR expressed in CHO cell membrane at 1 uM incubated for 60 mins by competitive binding assay relative to control; assay type: cell membranes
T4 sequence (whole entry): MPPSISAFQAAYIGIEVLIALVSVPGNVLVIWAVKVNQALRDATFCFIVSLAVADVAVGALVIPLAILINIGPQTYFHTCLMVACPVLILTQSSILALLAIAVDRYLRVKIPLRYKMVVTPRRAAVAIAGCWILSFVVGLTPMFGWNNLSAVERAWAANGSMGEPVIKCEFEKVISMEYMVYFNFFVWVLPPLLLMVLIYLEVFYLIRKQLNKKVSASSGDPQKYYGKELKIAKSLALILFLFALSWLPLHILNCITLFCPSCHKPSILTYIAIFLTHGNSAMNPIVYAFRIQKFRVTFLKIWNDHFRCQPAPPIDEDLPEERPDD

T1 sequence (P08684 whole entry): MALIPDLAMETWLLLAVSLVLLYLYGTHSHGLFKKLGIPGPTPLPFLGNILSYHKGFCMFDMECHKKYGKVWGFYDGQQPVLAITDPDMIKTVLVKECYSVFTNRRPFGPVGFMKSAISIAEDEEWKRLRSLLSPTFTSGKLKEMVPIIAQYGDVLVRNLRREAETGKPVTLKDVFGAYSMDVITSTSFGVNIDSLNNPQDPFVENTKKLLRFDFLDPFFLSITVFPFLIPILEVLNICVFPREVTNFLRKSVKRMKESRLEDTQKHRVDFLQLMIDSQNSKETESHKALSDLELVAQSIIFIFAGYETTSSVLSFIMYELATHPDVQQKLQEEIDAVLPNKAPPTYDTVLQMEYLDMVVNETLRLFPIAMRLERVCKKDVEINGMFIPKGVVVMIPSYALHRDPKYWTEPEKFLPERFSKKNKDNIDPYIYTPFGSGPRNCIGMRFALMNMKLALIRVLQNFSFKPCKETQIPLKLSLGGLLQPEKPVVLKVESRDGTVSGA
Adenosine receptor A2a (Homo sapiens), sequence (P29274 whole entry): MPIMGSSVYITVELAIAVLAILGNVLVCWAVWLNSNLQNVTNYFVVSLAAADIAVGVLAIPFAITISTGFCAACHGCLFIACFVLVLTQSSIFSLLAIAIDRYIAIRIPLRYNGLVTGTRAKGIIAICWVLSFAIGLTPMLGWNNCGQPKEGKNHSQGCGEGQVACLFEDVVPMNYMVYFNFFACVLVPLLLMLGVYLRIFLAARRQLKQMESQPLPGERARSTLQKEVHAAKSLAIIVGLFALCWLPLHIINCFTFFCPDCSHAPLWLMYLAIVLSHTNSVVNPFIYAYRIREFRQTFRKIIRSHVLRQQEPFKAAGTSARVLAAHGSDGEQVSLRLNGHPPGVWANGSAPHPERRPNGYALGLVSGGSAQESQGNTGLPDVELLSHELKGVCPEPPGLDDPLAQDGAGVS

Structure (SMILES) | solubility kinetic at 4 h [1] [µM] | Activity [2] [%] | IC50 (Cytochrome P450 3A4 [3]) [µM] | Activity [4] | also measured
CCCn1c(=O)[nH]c2[nH]c(-c3ccc(S(=O)(=O)C4CCC(c5ccc(Cl)cc5)CC4)cc3)nc2c1=O (centres undefined) | 0.2 (≈ 0.105 µg/mL) | – | – | – | –
CC1=C(C(=O)OC(C)C)C(c2ccco2)n2c(nc3cc(Cl)ccc32)N1 (racemic) | – | – | > 10 | Active | Activity [5]: 6.64%
CC1=C(C(=O)OC(C)C)C(c2ccco2)n2c(nc3cc(F)c(F)cc32)N1 (racemic) | – | – | > 10 | – | IC50 (Cytochrome P450 3A4 [6]): > 10 µM
CCOC(=O)C1=C(C)Nc2nc3cc(Br)ccc3n2[C@H]1c1ccoc1 | – | – | – | – | Activity [7]: 10%
CC1=C(C(=O)OC(C)C)C(c2cocn2)n2c(nc3ccccc32)N1 (centres undefined) | 39.7 (≈ 13.4 µg/mL) | 19 | – | – | Activity [8]: 7%; Activity [7]: 16%
CCOC(=O)C1=C(C)Nc2nc3ccccc3n2C1c1cocn1 (centres undefined) | – | – | – | – | Activity [8]: 5%; Activity [7]: 7%
CC1=C(C(=O)OC(C)C)C(c2ccco2)n2c(nc3ccccc32)N1 (centres undefined) | 25.2 (≈ 8.5 µg/mL) | – | – | – | –
CC1=C(C(=O)OC(C)C)C(c2ccco2)n2c(nc3cc(F)ccc32)N1 (racemic) | – | – | > 10 | Active | IC50 (Cytochrome P450 3A4 [6]): > 10 µM

Further lines, with some results ahead:

solubility kinetic at 4 h [1] [µM] | Activity [2] [%] | IC50 (Cytochrome P450 3A4 [3]) [µM] | Activity [4] | Structure (SMILES) | also measured
– | 12 | – | – | CCOC(=O)C1=C(C)Nc2nc3cc(Br)ccc3n2[C@@H]1c1ccoc1 | –
– | – | > 10 | Active | CC1=C(C(=O)OC(C)C)C(c2ccco2)n2c(nc3cc(Br)ccc32)N1 (racemic) | –
26.1 (≈ 8.81 µg/mL) | 23 | – | – | CC1=C(C(=O)OC(C)C)C(c2ccoc2)n2c(nc3ccccc32)N1 (centres undefined) | –
– | 14 | – | – | CC1=C(C(=O)OC(C)C)[C@@H](c2ccco2)n2c(nc3cc(Br)ccc32)N1 | –
– | – | – | Active | CCOC(=O)C1=C(C)Nc2nc3cc(Br)ccc3n2C1c1ccoc1 (racemic) | –

From ChEMBL document CHEMBL5321195, “Exploring the Effect of Halogenation in a Series of Potent and Selective A2B Adenosine Receptor Antagonists” (J Med Chem, 2023)
